The values below come from paper PMC9977398, “Next-generation membrane-active glycopeptide antibiotics that also inhibit bacterial cell division” (Chemical Science, 2023).

This data set can be described thus: In-vivo toxicity in mice (LD50). Set-up: species or system Balb/c female mice. The following applies: for LD50: single injection, 14 days. The protocol: The in vitro activity, low toxicity, and stability in plasma and liver homogenate, supported the potential of VanQAmC10 as a candidate for the treatment of bacterial infections. The efficacy of VanQAmC10 (8) against MRSA was tested in a neutropenic mouse thigh infection model. Infection was established by injecting them with 5 × 10^5 CFU of MRSA in the thigh. 1 h and 13 h post-infection, mice were treated with 12 mg kg^−1 of vancomycin and VanQAmC10 administered intraperitoneally (Fig. 6B). The mice were sacrificed 24 h post-infection. […] In the untreated group, the bacterial load increased to 8 log CFU g^−1. […] However, treatment with VanQAmC10 reduced the bacterial load to 3.3 log CFU g^−1, which is a 1.5 log CFU g^−1 lower bacterial load than observed against vancomycin.
Table S1: Activity of VanQAmC10 in mouse plasma and liver homogenate against MRSA […]
MIC of VanQAmC10 post incubation in (μM)
Bacteria Plasma Liver homogenate Media […]
when administered subcutaneously. […]
of VanQAmC10 as compared to the previously developed molecule, VanQC14.3 This reduced toxicity of VanQAmC10 can be attributed to the presence of the amide spacer between the cationic moiety and the alkyl chain as mentioned in the previous section.
Table S2 In-vivo toxicity (LD50 values) of VanQAmC10 by various modes of administration Mode of administration LD 50 (mg/kg)
All reagents were purchased from Sigma-Aldrich and Spectrochem and used without further purification. All the solvents of reagent grade were purchased from Spectrochem and SD Fine.
Chloroform for column chromatography was purchased from SD Fine chemicals and distilled prior to use. HPLC grade acetonitrile was purchased from Spectrochem. Analytical thin layer chromatography (TLC) was performed on E. Merck TLC plates pre-coated with silica gel 60 F254 (250 μm thickness). Vancomycin derivative was purified by reverse phase HPLC using 0.1 % trifluoroacetic acid (TFA) in water/acetonitrile (0-100 %) as mobile phase. HPLC […]
The doses for administration, were given modified OECD guidelines. LD50 was determined using Spearman-Karber method. […]

Consider `CCCCCCCCCCNC(=O)C[N+](C)(C)CCCNC(=O)C1NC(=O)C2NC(=O)C(NC(=O)C3NC(=O)C(CC(N)=O)NC(=O)C(NC(=O)C(CC(C)C)NC)C(O)c4ccc(c(Cl)c4)Oc4cc3cc(c4OC3OC(CO)C(O)C(O)C3OC3CC(C)(N)C(O)C(C)O3)Oc3ccc(cc3Cl)C2O)c2ccc(O)c(c2)-c2c(O)cc(O)cc21` (stereo not drawn) [VanQAmC10 (8)], for which the “dose well tolerated, all mice survived” value (intraperitoneal) was 130 mg/kg. The LD50 entry is, setting by setting: (intraperitoneal) “greater than 130 mg/kg”; (subcutaneous) “greater than 160 mg kg^−1”.
